From the supplement of paper PMC8741786
Converted amounts (≈) assume the structure as drawn.

System: Neisseria subflava/flavescens/perflava
Experiment: minimum inhibitory concentration (ETEST)
Settings: population: general population, antibiotic use in previous 6 months: No
Protocol: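 Oropharyngeal Neisseria isolates from MSM and employees in Belgium were identified to species by MALDI-TOF MS. MICs of azithromycin, ceftriaxone and ciprofloxacin were determined by ETEST on GC agar after 24 h at 36.5 °C and 5-7% CO2, in mg/L. Values beyond the strip range are reported as >256 (azithromycin) or <0.016 (ceftriaxone); isolates that did not grow are NA.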

CO/N=C(\C(=O)N[C@@H]1C(=O)N2C(C(=O)O)=C(CSc3nc(=O)c(O)nn3C)CS[C@H]12)c1csc(N)n1 [ceftriaxone]
Settings | minimum inhibitory concentration [µg/mL]
isolate id (sample isolate): Co000767_7 | 0.047 (≈ 0.0847 µM)
isolate id (sample isolate): Co000768_1 | 0.023 (≈ 0.0415 µM)
isolate id (sample isolate): Co000768_2 | 0.023 (≈ 0.0415 µM)
isolate id (sample isolate): Co000769_1 | 0.047 (≈ 0.0847 µM)
isolate id (sample isolate): Co000769_2 | 0.023 (≈ 0.0415 µM)
isolate id (sample isolate): Co000769_4 | 0.064 (≈ 0.115 µM)
isolate id (sample isolate): Co000770_2 | 0.032 (≈ 0.0577 µM)
isolate id (sample isolate): Co000770_4 | 0.032 (≈ 0.0577 µM)
isolate id (sample isolate): Co000770_6 | 0.032 (≈ 0.0577 µM)
isolate id (sample isolate): Co000771_2 | 0.064 (≈ 0.115 µM)
isolate id (sample isolate): Co000771_3 | 0.016 (≈ 0.0289 µM)
isolate id (sample isolate): Co000771_5 | 0.064 (≈ 0.115 µM)
isolate id (sample isolate): Co000772_1 | 0.064 (≈ 0.115 µM)
isolate id (sample isolate): Co000772_2 | 0.064 (≈ 0.115 µM)
isolate id (sample isolate): Co000772_4 | 0.023 (≈ 0.0415 µM)
isolate id (sample isolate): Co000772_5 | 0.023 (≈ 0.0415 µM)
isolate id (sample isolate): Co000772_6 | 0.016 (≈ 0.0289 µM)
isolate id (sample isolate): Co000773_1 | 0.064 (≈ 0.115 µM)
isolate id (sample isolate): Co000773_2 | 0.064 (≈ 0.115 µM)
isolate id (sample isolate): Co000774_2 | 0.016 (≈ 0.0289 µM)
isolate id (sample isolate): Co000775_1 | 0.032 (≈ 0.0577 µM)
isolate id (sample isolate): Co000775_2 | 0.047 (≈ 0.0847 µM)
isolate id (sample isolate): Co000775_3 | 0.094 (≈ 0.169 µM)
isolate id (sample isolate): Co000776_2 | 0.125 (≈ 0.225 µM)
isolate id (sample isolate): Co000776_3 | 0.125 (≈ 0.225 µM)
isolate id (sample isolate): Co000777_1 | 0.064 (≈ 0.115 µM)
isolate id (sample isolate): Co000777_2 | 0.047 (≈ 0.0847 µM)
isolate id (sample isolate): Co000777_4 | 0.047 (≈ 0.0847 µM)
isolate id (sample isolate): Co000778_1 | 0.094 (≈ 0.169 µM)
isolate id (sample isolate): Co000778_2 | 0.047 (≈ 0.0847 µM)
isolate id (sample isolate): Co000778_3 | 0.094 (≈ 0.169 µM)
isolate id (sample isolate): Co000780_4 | 0.125 (≈ 0.225 µM)
isolate id (sample isolate): Co000781_1 | 0.094 (≈ 0.169 µM)
isolate id (sample isolate): Co000781_3 | 0.064 (≈ 0.115 µM)
isolate id (sample isolate): Co000781_4 | 0.094 (≈ 0.169 µM)
isolate id (sample isolate): Co000782_2 | 0.047 (≈ 0.0847 µM)
isolate id (sample isolate): Co000782_3 | 0.25 (≈ 0.451 µM)
isolate id (sample isolate): Co000782_4 | 0.047 (≈ 0.0847 µM)
isolate id (sample isolate): Co000783_1 | 0.125 (≈ 0.225 µM)
isolate id (sample isolate): Co000783_2 | 0.032 (≈ 0.0577 µM)
isolate id (sample isolate): Co000783_5 | 0.032 (≈ 0.0577 µM)
isolate id (sample isolate): Co000784_1 | 0.023 (≈ 0.0415 µM)
isolate id (sample isolate): Co000784_2 | 0.047 (≈ 0.0847 µM)
isolate id (sample isolate): Co000784_5 | 0.032 (≈ 0.0577 µM)
isolate id (sample isolate): Co000785_1 | 0.047 (≈ 0.0847 µM)
isolate id (sample isolate): Co000785_2 | 0.047 (≈ 0.0847 µM)
isolate id (sample isolate): Co000785_3 | 0.064 (≈ 0.115 µM)
isolate id (sample isolate): Co000785_4 | 0.064 (≈ 0.115 µM)
isolate id (sample isolate): Co000786_1 | 0.032 (≈ 0.0577 µM)
isolate id (sample isolate): Co000786_2 | 0.064 (≈ 0.115 µM)
isolate id (sample isolate): Co000787_1 | 0.032 (≈ 0.0577 µM)
isolate id (sample isolate): Co000787_2 | 0.023 (≈ 0.0415 µM)
isolate id (sample isolate): Co000787_4 | 0.016 (≈ 0.0289 µM)
isolate id (sample isolate): Co000788_2 | 0.047 (≈ 0.0847 µM)
isolate id (sample isolate): Co000788_3 | 0.047 (≈ 0.0847 µM)
isolate id (sample isolate): Co000788_5 | 0.016 (≈ 0.0289 µM)
isolate id (sample isolate): Co000789_1 | 0.032 (≈ 0.0577 µM)
isolate id (sample isolate): Co000790_2 | 0.032 (≈ 0.0577 µM)
isolate id (sample isolate): Co000790_4 | 0.047 (≈ 0.0847 µM)
